Data from US20250351832A1, “PHYTOCHEMICALS AS BIOPESTICIDES AND BIOSTIMULANTS” (KAY BEE BIO ORGANICS PVT. LTD., priority 2024, published 2025).
Read-outs that look alike come from different tables or passages of the source.

Legend:
[1] = system: Mite; conditions: mite on okra plants, green house, dose 1 ml/gm/lit. spray
[2] = system: Aphid; conditions: Dose 1 ml/gm/lit.
[3] = system: tomato seedlings; assay: Response of tomato plants, greenhouse growth (Ex. 30); assay type: in vivo; conditions: tomato seedlings, dose 1 ml/gm/lit
[4] = system: Thrips; conditions: thrips on cotton plants, greenhouse, dose 1 ml/gm/lit. spray
[5] = system: Thrips; conditions: Thrips on cotton leaves; dose 1 ml/gm/lit.; 10 insects/treatment; 48 hrs after application
[6] = system: Alternaria alternata; assay: In vitro poisoned food technique against fungus (Ex. 20); assay type: cell-based; conditions: poisoned food technique, PDA medium, dose 1 ml/gm/lit., after seven days
[7] = system: Thrips; assay: whole plant or invertebrate; conditions: in Gossypium hirsutum, 48 h
[8] = system: Mealy Bug; conditions: Mealy Bug on cotton leaves, dose 1 ml/gm/lit., 48 Hrs.
[9] = system: Spodoptera litura; assay: whole plant or invertebrate; conditions: 72 h
[10] = system: Spodoptera litura; conditions: Spodoptera litura on castor leaves; dose 1 ml/gm/lit.; 10 insects/treatment; 72 hrs after application
[11] = system: Alternaria alternata; assay: Alternaria leaf spot/blight on inoculated tomato plants (Ex. 28); assay type: in vivo; conditions: tomato plants, Alternaria alternata; after 7 days; dose 1 ml/gm/lit
[12] = system: Mite; conditions: Dose 1 ml/gm/lit.
[13] = Table 13, descriptive; no test described; cited from earlier work
[14] = system: chili seedlings; assay: Response of chili plants, greenhouse growth (Ex. 31); assay type: in vivo; conditions: chili seedlings, dose 1 ml/gm/lit
[15] = system: Helicoverpa armigera; conditions: Helicoverpa armigera 3rd instar on chickpea plants, dose 1 ml/gm/lit. spray
[16] = system: Aphid; conditions: Aphids on cotton plants, green house; dose 1 ml/gm/lit.; 10 insects/plant, 10 plants/treatment; 48 hrs
[17] = system: Helicoverpa armigera; conditions: Helicoverpa armigera on okra fruits, dose 1 ml/gm/lit., 72 Hrs.
[18] = system: Aphid; assay: whole plant or invertebrate; conditions: 48 h
[19] = system: Mealy Bug; conditions: mealy bug on cotton plants, green house, dose 1 ml/gm/lit. spray
[20] = system: Spodoptera litura; conditions: Spodoptera litura 3rd instar on cabbage plants, dose 1 ml/gm/lit. spray
[21] = 48 hrs, corrected for water control
[22] = read-out: % Corrected Mortality at 48 Hrs.
[23] = read-out: % Mortality at 48 Hrs.
[24] = 10 insects/treatment, 4 replications
[25] = 72 hrs, corrected for water control

Cc1ccc(C(C)C)cc1O [Carvacrol]
% Mortality at 48 Hrs. ([1]; 48 hrs after application): 47.50% | Total No. of dead insect at 48 Hrs. ([1]; 48 hrs after application): 47.50 | % Corrected Mortality at 48 Hrs. [1, 21]: 44.74% | Total No. of dead insect at 48 Hrs. ([2]; 10 insects/treatment, 4 replications, cotton leaves): 7.00 | % Corrected Mortality at 48 Hrs. ([2]; 48 hrs): 65.71% | % Mortality at 48 Hrs. ([2]; 48 hrs): 70.00% | Plant Height 5th Day ([3]; 5th day after application): 6.38 cm | Stem Girth 5th Day ([3]; 5th day after application): 2.05 mm | Plant Height 10th Day ([3]; 10th day after application): 7.23 cm | Stem Girth 10th Day ([3]; 10th day after application): 2.35 mm | Plant Height % Increase over pre on 10th Day ([3]; 10th day): 32.66% | Stem Girth % Increase over pre on 10th Day ([3]; 10th day): 63.42% | CCI 5th Day ([3]; 5th day after application): 13.62 | CCI % Increase over pre on 10th Day ([3]; 10th day): 33.70% | Root Length (cm) 10th Day ([3]; 10th day): 4.25 cm | CCI 10th Day ([3]; 10th day after application): 15.87 | Root Length % Increase over control ([3]; 10th day, vs water control): 27.69% | % Mortality at 48 Hrs. ([4]; 48 hrs after application): 32.50% | Total No. of dead insect at 48 Hrs. ([4]; 48 hrs after application): 32.50 | % Corrected Mortality at 48 Hrs. [4, 21]: 25.00% | Total No. of dead insect at 48 Hrs. [5]: 3.50 | Mean colony Diameter (mm) [6]: 52.50 mm | inhibition of growth at 1 mL or g/L ([6]; vs untreated control, read-out: % Inhibition of growth): 40.3% | mortality at 1 mL or g/L [7, 22]: 25.7% | mortality at 1 mL or g/L [7, 23]: 35% | Total No. of dead insect at 48 Hrs. [8, 24]: 6.75 | % Mortality at 48 Hrs. [8]: 67.50% | % Corrected Mortality at 48 Hrs. ([8]; corrected for water control): 65.79% | mortality at 1 mL or g/L ([9]; read-out: % Corrected Mortality at 72 Hrs.): 42.1% | mortality at 1 mL or g/L ([9]; read-out: % Mortality at 72 Hrs.): 45% | Total No. of dead insect at 72 Hrs. [10]: 4.50 | % Disease reduction over Control [11]: 47.93% | Total No. of dead insect at 48 Hrs. ([12]; 10 insects/treatment, 4 replications, okra leaves): 4.25 | % Corrected Mortality at 48 Hrs. ([12]; 48 hrs): 37.84% | % Mortality at 48 Hrs. ([12]; 48 hrs): 42.50% | Acaricidal Activity - Mode of action [13]: Has acaricidal activities | Antifungal Activity - Mode of action [13]: Antifungal activities | Antioxidant Activity - Mode of action [13]: Antioxidant activities | Bactericidal Activity - Mode of action [13]: Exhibits antibacterial | Insecticidal Activities - Mode of action [13]: Insecticidal toxicities | Nematicidal Activity - Mode of action [13]: Effective against plant | CCI 5th Day ([14]; 5th day after application): 14.95 | Plant Height (cm) 5th Day ([14]; 5th day after application): 6.33 cm | CCI % Increase over pre on 10th Day ([14]; 10th day): 64.84% | Plant Height % Increase over pre on 10th Day ([14]; 10th day): 65.77% | Root Lenght (cm) 10th Day ([14]; 10th day): 3.97 cm | Stem Girth % Increase over pre on 10th Day ([14]; 10th day): 49.25% | CCI 10th Day ([14]; 10th day after application): 15 | Plant Height (cm) 10th Day ([14]; 10th day after application): 7.57 cm | Root Lenght % Increase over control ([14]; 10th day, vs water control): 44.94% | % Mortality at 72 Hrs. ([15]; 72 hrs after application): 52.50% | % Corrected Mortality at 72 Hrs. [15, 25]: 52.50% | Total No. of dead insect at 48 Hrs. [16]: 72.50 | Total No. of dead insect at 72 Hrs. [17, 24]: 5.50 | % Mortality at 72 Hrs. [17]: 55.00% | % Corrected Mortality at 72 Hrs. ([17]; corrected for water control): 55.00% | mortality at 1 mL or g/L [18, 22]: 67.7% | mortality at 1 mL or g/L [18, 23]: 72.5% | % Mortality at 48 Hrs. ([19]; 48 hrs after application): 65.00% | Total No. of dead insect at 48 Hrs. ([19]; 48 hrs after application): 65.00 | % Corrected Mortality at 48 Hrs. [19, 21]: 61.11% | % Mortality at 72 Hrs. ([20]; 72 hrs after application): 47.50% | % Corrected Mortality at 72 Hrs. [20, 25]: 44.74%
